“Also recorded” adds a separate entry of the source.
Assays:
HIV-1ADA = assay: RT activity in supernatant of HIV-1ADA-infected monocytes; assay type: cell-based, HIV-1ADA in primary human monocytes
Experimental: The cultures were treated with none or between 10^-12 and 10^-6M Compound No. 2 and, simultaneously with the beginning of treatment, the cells were exposed to the monocyte-tropic strain HIV-1ADA about 0.01 TCID50 /cell (1 ng p24/10^6 cells) for 2 hours. Samples were withdrawn at days 3, 6, 10, 14 and 17 after infection and assayed for reverse transcription activity.
FIGS. 2B and 2C show the effects of various concentrations of Compound No. 2 on the production of HIV-1 in monocyte cultures not supplemented with M-CSF. In these studies MOI, as determined by concentration of p24 antigen was; FIG. 2B (8 ng/10^6 cells) and FIG. 2C (0.8 ng/10^6 cells).
Primary human monocytes were obtained from peripheral blood by Ficoll-Hypaque centrifugation and adherence to plastic as described previously. Gartner S. P., et al., 1986, Science 233:215. Briefly, after Ficoll-Hypaque (Pharmacia) separation, PBMCs were washed 4 times with DMEM (the last wash was done at 800 rpm to remove platelets) and resuspended in monocyte culture medium [DMEM supplemented with 1 mM glutamine, 10% heat-inactivated human serum, 1% penicillin+streptomycin mixture (Sigma)] at a density of 6×10^6 cells/ml. Cells were seeded in 24-well plates (1 ml per well) and incubated for 2 h at 37° C., 5% CO2. Following incubation, cells were washed 3 times with DMEM to remove non-adherent cells and incubation was continued in monocyte culture medium supplemented with 250 U/ml human M-CSF (Sigma). Cells were allowed to mature for 7 days prior to infection with the monocyte-tropic strain, HIV-1ADA. Nuovo, G. J., et al., 1992, Diagn. Mol. Pathol. 1:98. Two hours after infection, cells were washed with medium and cultured in RPMI supplemented with 10% human serum. […]
Macrophage-tropic strain HIV-1ADA was amplified in primary human monocytes and concentrated to produce stock with TCID50 of about 10^5 /ml. The concentration of HIV-1 was determined by immunoassay of viral p24, concentration; using a conversion factor of […].
For the reverse transcriptase (RT) assay, 10 μl of culture supernatant was added to 40 μl of reaction mixture (final composition was 50 mM Tris-HCl, pH 7.8; 20 mM KCl; 5 mM MgCl2; 1 mM DTT; 0.1% Triton X-100; 0.2 OD/ml polyA; 0.2 OD/ml oligo(dT)12-18; and 40 μCi/ml ^3 H-dTTP (76 Ci/mmol, DuPont) and incubated 2 hr at 37° C. 5 μl of the reaction mixture was then spotted onto the DE 81 (Whatman) paper. Paper was air dried and washed 5 times with 5% Na2 HPO4, followed by rinsing with distilled water. After air drying, paper was put on a Flexi Filter plate (Packard), covered with scintillation fluid and counted in a Top Count Microplate Counter (Packard). Results are expressed as counts per minute in 1 ml of supernatant (cpm/ml).

monocyte cultures = assay: Cytotoxicity in monocyte cultures (LDH release, trypan blue exclusion); assay type: cell-based, human; conditions: up to 10 μM; LDH release and trypan blue exclusion
[1] = tested on: nuclear importation of HIV-1 preintegration complexes; assay: Nuclear importation of HIV-1 preintegration complexes (2-LTR circle PCR) in primary human monocytes; assay type: cell-based, HIV-1ADA in primary human monocytes; conditions: Monocyte, 100 nM, 48 and 96 hours post infection
From the text: The effects of Compound No. 2 on the nuclear importation of HIV-1 preintegration complexes can be directly measured by detecting the presence of circularized duplex HIV-1 genomic DNA. These duplex circles can be readily detected by PCR amplification using primers which span the junction of the circularized HIV-1 genome. Bukrinsky, M. I., et al., 1992, Proc.Natl.Acad.Sci. 89:6580-84.
Briefly, the efficiency of nuclear translocation was estimated by the ratio between the 2-LTR- and pol-specific PCR products, which reflects the portion of 2-LTR circle DNA molecules as a fraction of the entire pool of intracellular HIV-1 DNA. Viral 2-LTR circle DNA is formed exclusively within the nucleus of infected cells and thus is a convenient marker of successful nuclear translocation. […]
Total DNA was extracted from HIV-1-infected cells using the IsoQuick extraction kit (Microprobe Corp., Garden Grove, Calif.). DNA was then analyzed by PCR using primer pairs that amplify the following sequences: a fragment of HIV-1 (LTR/gag) that is the last one to be synthesized during reverse transcription and therefore represents the pool of full-length viral DNA molecules; a fragment of polymerase gene (pol); a 2-LTR junction region found only in HIV-1 2-LTR circle DNA molecules; or a fragment of the cellular a-tubulin gene. […]

For `CC(=O)c1cc(Nc2cc(C)[n+](C)c(N)n2)cc(C(C)=O)c1.[I-]` [Compound No. 2, 2-amino-4-(3,5-diacetylphenyl)amino-1,6-dimethylpyrimidinium iodide], the IC50 (HIV-1ADA; Homo sapiens, Monocyte, FIG. 2A, M-CSF, 1 ng p24/10^6 cells) was 0.1 to 1 nM, the IC50 (HIV-1ADA; Homo sapiens, Monocyte, FIG. 2B, without M-CSF, 8 ng p24/10^6 cells) was ~10 nM and the IC50 (HIV-1ADA; Homo sapiens, Monocyte, FIG. 2C, without M-CSF, 0.8 ng p24/10^6 cells) was < 1 nM. The IC50 (HIV-1ADA; Human immunodeficiency virus 1, Monocyte, FIG. 2, HIV-1 replication in monocytes, estimated) was 0.1 to 1 nM, the cytotoxic effect (monocyte cultures) was “without toxic effects; also recorded: no cytotoxic effect was observed” and the inhibition at 0.1 µM [1] was > 90%. The activity at 0.1 µM ([1]; relative to drug free control, read-out: Translocation Index) was < 10%.

Reference: patent US5840893A, “Compounds for treating infectious diseases” (priority 1996, dated 1998)
